Measurements published in patent publication US7294687B2, “Parenteral formulations of a peptide for the treatment of systemic lupus erythematosus” (TEVA Pharmaceutical Industries, Ltd., priority 2003, dated 2007).
Read-outs that look alike come from different tables or passages of the source.

How the values were obtained:
[1] = system: SLE-prone (NZBxNZW)F1 female mouse; test: Intensity of immune complex deposits (ICD) in kidneys; type: in vivo, (NZBxNZW)F1 mice
Description: (§1) The same batch of drug substance was used in this study and in the first Phase I clinical trial with Compound 1. The mice were followed for anti-dsDNA antibodies and for proteinuria. When the mice were sacrificed, the intensity of ICD was determined in kidneys.

[2] = system: SLE-prone (NZBxNZW)F1 female mouse; test: Anti-dsDNA antibodies in SLE-prone mice; type: in vivo, (NZBxNZW)F1 mice; settings: 25 or 50 μg/mouse in Captisol®; after 10 treatment injections; vs Captisol® alone
Description: as §1

[3] = system: IFN-γ secretion by LN cells; test: IFN-γ secretion by cultured LN cells of immunized and treated mice, ELISA; type: in vivo, BALB/c mice
Description: A group of 20 mice were immunized with 50 μg/mouse of Compound 1 RS. The immunized mice were allocated to five treatment groups as follows: placebo, 25, 50, 100 and 200 μg/mouse of Compound 1 DP (subcutaneous administration). Ten days post immunization and treatment, LN was extracted and single cell suspension was prepared. The in-vitro secretion of IFN-γ and TGF-β by the cultured cells in response to activation with several concentrations of Compound 1 RS was then measured. [table] [table] […] Mice were sacrificed by cervical dislocation. LN were extracted from the hind legs and were transferred to a sterile petri dish containing about 5 mL RPMI. The cells were extracted by gentle squeezing of the tissue against a 200 micrometer mesh stainless steel net. The cells were collected and centrifuged at 300 G for 10 minutes at RT. Single cell suspensions were prepared from pooled LN of each experimental group. […] Secretion of IFN-γ and TGF-β, as indication of cellular response, were determined by ELISA of culture media (48 hrs for IFN-γ and 72 hrs for TGF-β). [table]

[4] = system: Balb/c mice and SLE-prone (NZBxNZW)F1 mice; settings: cited from earlier work
[5] = system: peripheral blood lymphocytes (PBL) of SLE subjects; settings: Compound 1 in captisol®, throughout the study period
[6] = system: peripheral blood lymphocytes (PBL) of SLE patients; settings: cited from earlier work
SLE subjects = test: Phase Ia single dose clinical study, tolerability and safety; type: in vivo, human
Description: The following safety parameters were assessed at Screening, during the hospitalization and at follow-up visits including Termination visit: vital signs (systolic blood pressure, diastolic blood pressure, pulse, oxygen saturation, temperature and weight), 12-lead ECG, change in physical examination and clinical routine laboratory safety tests. Adverse events were recorded at the Dosing Day and at each visit thereafter.

[7] = Solubility of Compound 1 peptide, formulation development; type: physicochemical
Text: In order to develop a formulation for sub-cutaneous injection, it is also desirable that the pH be in the range of 4 to 9 and that the solution be iso-osmotic.
The pH was adjusted if needed.

[8] = system: IL-2 secretion from Compound 1 reference standard (RS) specific T-cells; test: Inhibition of IL-2 secretion from Compound 1 RS specific T-cells following s.c. treatment, ELISA; type: in vivo, mice; settings: at the range of 5-100 μg/ml activator
Text: The biological activity was monitored by inhibition of IL-2 secretion from Compound 1 reference standard (RS) specific T-cells following subcutaneous (s.c.) treatment with the lyophilized compound solution, i.e. the drug product (DP), at two concentrations. The results of the treatment are compared to those of treating mice with Compound 1 (RS) in phosphate buffered saline (PBS).

[9] = Stability of Compound 1 versus pH, initial tests; type: physicochemical; settings: basic pH range
Description: Thus, several buffers and pH adjustment agents were tested, including acetate buffer, citrate buffer and sodium carbonate. None of the initially tested buffers achieved the desired peptide solubility level. […] Nevertheless, at the initial stage, formulations with acetate buffer and citrate buffer (with Mannitol as a tonicity agent) were selected for initial toxicology studies. These formulations were tested for biological activity and proven active.

[10] = single s.c. dose 0.5, 1 or 2.5 mg in Captisol®
[11] = single s.c. dose 0.5, 1 or 2.5 mg in Captisol®, vs placebo

H-GYYWSWIRQPPGKGEEWIG-OH [Compound 1]
ICD (Mean ± SEM) ([1]; 50 μg/mouse in Captisol ®, intensity scale 0 = none to 3 = severe/extremely intense): 1.90 ± 0.23 | intensity of immune complex deposits in kidney sections ([1]; 25 or 50 μg/mouse dissolved in Captisol®, FIG. 6): much lower than that observed in the control group | levels of dsDNA-specific antibodies [2]: no significant differences between groups | Final cytokine (IFN-γ secretion) ([3]; Compound 1 DP 25 μg/M s.c., 5 million cells/well, activation Compound 1 RS 3.125 μg/ml): BQL | Final cytokine (IFN-γ secretion) ([3]; Compound 1 DP 25 μg/M s.c., 5 million cells/well, activation Compound 1 RS 6.25 μg/ml): BQL | Final cytokine (IFN-γ secretion) ([3]; Compound 1 DP 25 μg/M s.c., 5 million cells/well, activation Compound 1 RS 12.5 μg/ml): 41.9 pg/mL | Final cytokine (IFN-γ secretion) ([3]; Compound 1 DP 25 μg/M s.c., 5 million cells/well, activation Compound 1 RS 50 μg/ml): 104.2 pg/mL | Final cytokine (IFN-γ secretion) ([3]; Compound 1 DP 25 μg/M s.c., 5 million cells/well, activation Compound 1 RS 100 μg/ml): 185.2 pg/mL | Final cytokine (IFN-γ secretion) ([3]; Compound 1 DP 25 μg/M s.c., 5 million cells/well, activation Compound 1 RS 25 μ/ml): 70.0 pg/mL | Final cytokine (IFN-γ secretion) ([3]; Compound 1 DP 25 μg/M s.c., 5 million cells/well, activation Con A): 2995.3 pg/mL | Final cytokine (IFN-γ secretion) ([3]; Compound 1 DP 50 μg/M s.c., 2.5 million cells/well, activation Compound 1 RS 3.125 μg/ml): 54.1 pg/mL | Final cytokine (IFN-γ secretion) ([3]; Compound 1 DP 50 μg/M s.c., 2.5 million cells/well, activation Compound 1 RS 6.25 μg/ml): 81.8 pg/mL | Final cytokine (IFN-γ secretion) ([3]; Compound 1 DP 50 μg/M s.c., 2.5 million cells/well, activation Compound 1 RS 12.5 μg/ml): 123.1 pg/mL | Final cytokine (IFN-γ secretion) ([3]; Compound 1 DP 50 μg/M s.c., 2.5 million cells/well, activation Compound 1 RS 50 μg/ml): 292.5 pg/mL | Final cytokine (IFN-γ secretion) ([3]; Compound 1 DP 50 μg/M s.c., 2.5 million cells/well, activation Compound 1 RS 100 μg/ml): 531.8 pg/mL | Final cytokine (IFN-γ secretion) ([3]; Compound 1 DP 50 μg/M s.c., 2.5 million cells/well, activation Compound 1 RS 25 μ/ml): 215.1 pg/mL | Final cytokine (IFN-γ secretion) ([3]; Compound 1 DP 50 μg/M s.c., 2.5 million cells/well, activation Con A): 356.2 pg/mL | Final cytokine (IFN-γ secretion) ([3]; Compound 1 DP 50 μg/M s.c., 5 million cells/well, activation Compound 1 RS 3.125 μg/ml): 76.2 pg/mL | Final cytokine (IFN-γ secretion) ([3]; Compound 1 DP 50 μg/M s.c., 5 million cells/well, activation Compound 1 RS 6.25 μg/ml): 109.2 pg/mL | Final cytokine (IFN-γ secretion) ([3]; Compound 1 DP 50 μg/M s.c., 5 million cells/well, activation Compound 1 RS 12.5 μg/ml): 179.5 pg/mL | Final cytokine (IFN-γ secretion) ([3]; Compound 1 DP 50 μg/M s.c., 5 million cells/well, activation Compound 1 RS 50 μg/ml): 373.4 pg/mL | Final cytokine (IFN-γ secretion) ([3]; Compound 1 DP 50 μg/M s.c., 5 million cells/well, activation Compound 1 RS 100 μg/ml): 547.0 pg/mL | Final cytokine (IFN-γ secretion) ([3]; Compound 1 DP 50 μg/M s.c., 5 million cells/well, activation Compound 1 RS 25 μ/ml): 277.9 pg/mL | Final cytokine (IFN-γ secretion) ([3]; Compound 1 DP 50 μg/M s.c., 5 million cells/well, activation Con A): 4837.0 pg/mL | Final cytokine (IFN-γ secretion) ([3]; Compound 1 DP 100 μg/M s.c., 2.5 million cells/well, activation Compound 1 RS 3.125 μg/ml): 64.5 pg/mL | Final cytokine (IFN-γ secretion) ([3]; Compound 1 DP 100 μg/M s.c., 2.5 million cells/well, activation Compound 1 RS 6.25 μg/ml): 116.1 pg/mL | Final cytokine (IFN-γ secretion) ([3]; Compound 1 DP 100 μg/M s.c., 2.5 million cells/well, activation Compound 1 RS 12.5 μg/ml): 180.9 pg/mL | Final cytokine (IFN-γ secretion) ([3]; Compound 1 DP 100 μg/M s.c., 2.5 million cells/well, activation Compound 1 RS 50 μg/ml): 518.3 pg/mL | Final cytokine (IFN-γ secretion) ([3]; Compound 1 DP 100 μg/M s.c., 2.5 million cells/well, activation Compound 1 RS 100 μg/ml): 582.7 pg/mL | Final cytokine (IFN-γ secretion) ([3]; Compound 1 DP 100 μg/M s.c., 2.5 million cells/well, activation Compound 1 RS 25 μ/ml): 262.8 pg/mL | Final cytokine (IFN-γ secretion) ([3]; Compound 1 DP 100 μg/M s.c., 2.5 million cells/well, activation Con A): 337.4 pg/mL | Final cytokine (IFN-γ secretion) ([3]; Compound 1 DP 100 μg/M s.c., 5 million cells/well, activation Compound 1 RS 3.125 μg/ml): 90.8 pg/mL | Final cytokine (IFN-γ secretion) ([3]; Compound 1 DP 100 μg/M s.c., 5 million cells/well, activation Compound 1 RS 6.25 μg/ml): 157.8 pg/mL | Final cytokine (IFN-γ secretion) ([3]; Compound 1 DP 100 μg/M s.c., 5 million cells/well, activation Compound 1 RS 12.5 μg/ml): 257.1 pg/mL | Final cytokine (IFN-γ secretion) ([3]; Compound 1 DP 100 μg/M s.c., 5 million cells/well, activation Compound 1 RS 50 μg/ml): 739.7 pg/mL | Final cytokine (IFN-γ secretion) ([3]; Compound 1 DP 100 μg/M s.c., 5 million cells/well, activation Compound 1 RS 100 μg/ml): 995.5 pg/mL | Final cytokine (IFN-γ secretion) ([3]; Compound 1 DP 100 μg/M s.c., 5 million cells/well, activation Compound 1 RS 25 μ/ml): 421.7 pg/mL | Final cytokine (IFN-γ secretion) ([3]; Compound 1 DP 100 μg/M s.c., 5 million cells/well, activation Con A): 10126.8 pg/mL | Final cytokine (IFN-γ secretion) ([3]; Compound 1 DP 200 μg/M s.c., 2.5 million cells/well, activation Compound 1 RS 3.125 μg/ml): 103.9 pg/mL | Final cytokine (IFN-γ secretion) ([3]; Compound 1 DP 200 μg/M s.c., 2.5 million cells/well, activation Compound 1 RS 6.25 μg/ml): 126.1 pg/mL | Final cytokine (IFN-γ secretion) ([3]; Compound 1 DP 200 μg/M s.c., 2.5 million cells/well, activation Compound 1 RS 12.5 μg/ml): 129.0 pg/mL | Final cytokine (IFN-γ secretion) ([3]; Compound 1 DP 200 μg/M s.c., 2.5 million cells/well, activation Compound 1 RS 50 μg/ml): 378.1 pg/mL | Final cytokine (IFN-γ secretion) ([3]; Compound 1 DP 200 μg/M s.c., 2.5 million cells/well, activation Compound 1 RS 100 μg/ml): 524.1 pg/mL | Final cytokine (IFN-γ secretion) ([3]; Compound 1 DP 200 μg/M s.c., 2.5 million cells/well, activation Compound 1 RS 25 μ/ml): 240.3 pg/mL | Final cytokine (IFN-γ secretion) ([3]; Compound 1 DP 200 μg/M s.c., 2.5 million cells/well, activation Con A): BQL | Final cytokine (IFN-γ secretion) ([3]; Compound 1 DP 200 μg/M s.c., 5 million cells/well, activation Compound 1 RS 3.125 μg/ml): 204.4 pg/mL | Final cytokine (IFN-γ secretion) ([3]; Compound 1 DP 200 μg/M s.c., 5 million cells/well, activation Compound 1 RS 6.25 μg/ml): 244.1 pg/mL | Final cytokine (IFN-γ secretion) ([3]; Compound 1 DP 200 μg/M s.c., 5 million cells/well, activation Compound 1 RS 12.5 μg/ml): 466.1 pg/mL | Final cytokine (IFN-γ secretion) ([3]; Compound 1 DP 200 μg/M s.c., 5 million cells/well, activation Compound 1 RS 50 μg/ml): 922.5 pg/mL | Final cytokine (IFN-γ secretion) ([3]; Compound 1 DP 200 μg/M s.c., 5 million cells/well, activation Compound 1 RS 100 μg/ml): 1006.2 pg/mL | Final cytokine (IFN-γ secretion) ([3]; Compound 1 DP 200 μg/M s.c., 5 million cells/well, activation Compound 1 RS 25 μ/ml): 660.5 pg/mL | Final cytokine (IFN-γ secretion) ([3]; Compound 1 DP 200 μg/M s.c., 5 million cells/well, activation Con A): 7722.8 pg/mL | inhibition of IFN-γ secretion ([3]; all the doses used for treatment (25-200 μg/mouse)): Significant inhibition | SLE related findings: immune complex deposits (ICD) in the kidney, proteinuria and leukopenia ([4]; Balb/c and (NZBxNZW)F1 mice): significantly reduced | disease manifestations of mice afflicted with spontaneous or experimental SLE ([4]; mouse, in vivo): ameliorate disease manifestations | immunological response to TTX recall antigen [5]: did not change the immunological response to TTX recall antigen | proliferative response of PBL of SLE patients to the human anti-DNA 16/6Id mAB [6]: inhibit the proliferative response | QTc change from baseline (SLE subjects; [10]): ≤ 60 ms | serious adverse event (SAE) or AE classified as severe (SLE subjects; [10]): No serious adverse event (SAE) or AE classified as severe occurred | vital signs parameters (systolic and diastolic blood pressure, pulse, oxygen saturation) (SLE subjects; [10]): No clinically significant effect | categorical ECG measurements and digitized ECG parameters (SLE subjects; [11]): No differences of clinical significance | incidence of AEs (SLE subjects; [11]): no prominent difference | safety and tolerability, Phase Ia (SLE subjects; single subcutaneous dose of 0.5, 1 or 2.5 mg in 120 mg Captisol®): safe and well tolerated | solubility ([7]; only above pH 9.2 and below pH 3.0, buffers and pH adjustment agents, read-out: solubility levels): ≥ 2000 µg/mL | solubility ([7]; water (aqueous solution), acetate salt, read-out: aqueous solubility of the peptide): < 500 µg/mL | Average inhibition (%) of IL-2 secretion ([8]; treatment 50 μg/mouse s.c.): 45.6% | Average inhibition (%) of IL-2 secretion ([8]; treatment 200 μg/mouse s.c.): 60.4% | stability versus pH [9]: less stable
